This note sets out measurements from patent publication US20240067693A1, “POLYPEPTIDES AND USES THEREOF” (MEDIMMUNE LIMITED, priority 2020, published 2024).

Numbered stars: 1 amine (or outer) side, 2 acyl side, 3 side chain; on linkers, the order of the positions; unused ones are H or OH. Bridge positions count the residues as written; N and C are the ends. Square brackets hold non-standard residues; d marks the D form. Side chains are listed from the residue outwards. Peptide text beside a SMILES is read from it. * marks the point of attachment. C18 diacid = O=C(O)CCCCCCCCCCCCCCCCC(=O)*; γGlu = O=C(O)[C@H](CCC(=O)[*:2])N[*:1]; αMeS = C[C@](N)(CO)C(=O)O; AEEA = NCCOCCOCC(=O)O; Aib = CC(C)(N)C(=O)O

For experiment [1], the target named is T1, human calcitonin receptor (hCTR) (Homo sapiens, UniProt P30988).
T1 construct: expressed in transfected cells
T1 sequence (P30988 25-474): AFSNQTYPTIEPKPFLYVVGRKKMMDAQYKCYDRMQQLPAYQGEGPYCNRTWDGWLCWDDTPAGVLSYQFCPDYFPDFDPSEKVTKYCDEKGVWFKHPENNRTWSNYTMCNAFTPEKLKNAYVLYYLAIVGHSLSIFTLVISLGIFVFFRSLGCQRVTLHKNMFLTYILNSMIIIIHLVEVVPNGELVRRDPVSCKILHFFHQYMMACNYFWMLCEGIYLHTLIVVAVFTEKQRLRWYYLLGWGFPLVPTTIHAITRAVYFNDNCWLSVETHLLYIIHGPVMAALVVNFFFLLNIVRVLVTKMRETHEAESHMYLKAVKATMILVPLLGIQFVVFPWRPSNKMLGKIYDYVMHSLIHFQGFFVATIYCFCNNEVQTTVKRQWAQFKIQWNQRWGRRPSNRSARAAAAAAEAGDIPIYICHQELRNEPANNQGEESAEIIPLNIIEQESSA
The experiment is described as follows: cAMP production in 1321N1 cells with stable recombinant expression of human calcitonin receptor (hCTR). It counts as cell-based. Conditions: cAMP, 1321N1 cells, assay buffer with 0.1% BSA; read-out: EC50 (pM) hCTR. Put shortly:
(§1)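 Receptor-expressing cells (human receptors in 1321N1, rat receptors in HEK) incubated 30 min at room temperature with peptide in HBSS/HEPES pH 7.4, 0.1% BSA, 0.5 mM IBMX. cAMP read by HTRF; EC50 from 4-parameter fit as % of maximal amylin or calcitonin response.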
On the technique in general: Changes in cAMP serve as a functional read-out for many G protein-coupled receptors.

In experiment [2] the target is T2, human amylin receptor (calcitonin receptor co-expressed with receptor activity modifying protein, RAMP3) (hAMYR3) (Homo sapiens, UniProt O60896+P30988).
T2 construct: expressed in transfected cells
T2 sequence (P30988 25-474): T1 sequence (P30988 25-474)
T2 sequence (O60896 24-148 partner): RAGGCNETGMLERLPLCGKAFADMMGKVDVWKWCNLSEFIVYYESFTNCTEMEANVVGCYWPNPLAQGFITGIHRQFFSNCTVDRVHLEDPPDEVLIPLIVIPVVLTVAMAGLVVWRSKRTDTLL
Briefly: cAMP production in 1321N1 cells with stable recombinant expression of human amylin receptor (hAMYR3). It counts as cell-based. Particulars: for Ratio (selectivity hAMYR vs hCTR, ratio of EC50 values at the two receptors): EC50 hCTR / EC50 hAMYR3; for EC50: cAMP, 1321N1 cells, assay buffer with 0.1% BSA, read-out: EC50 (pM) hAMYR3. Put shortly:
as §1

Broadly, the EC50 is the midpoint of the concentration-response curve. In the case of `CC[C@H](C)[C@H](NC(=O)[C@@H]1CCCN1C(=O)CNC(=O)[C@H](Cc1ccccc1)NC(=O)[C@H](CC(N)=O)NC(=O)C(C)(C)NC(=O)[C@H](CO)NC(=O)[C@H](CO)NC(=O)[C@H](Cc1c[nH]cn1)NC(=O)[C@H](CCC(=O)O)NC(=O)[C@H](CC(C)C)NC(=O)[C@H](Cc1ccccc1)NC(=O)[C@H](CC(N)=O)NC(=O)[C@H](C)NC(=O)[C@H](CC(C)C)NC(=O)[C@H](CCCNC(=N)N)NC(=O)[C@H](CCC(N)=O)NC(=O)[C@@H](NC(=O)[C@H](C)NC(=O)[C@@H]1CSSC[C@H](NC(=O)[C@H](CCCCN)NC(=O)[C@@H](N)CCCCNC(=O)CC[C@H](NC(=O)CCCCCCCCCCCCCCCCC(=O)O)C(=O)O)C(=O)N[C@@H](CC(N)=O)C(=O)N[C@@H]([C@@H](C)O)C(=O)N[C@@H](C)C(=O)N[C@@H]([C@@H](C)O)C(=O)N1)[C@@H](C)O)C(=O)N[C@@H](CC(C)C)C(=O)N1CCC[C@H]1C(=O)N1CCC[C@H]1C(=O)N[C@H](C(=O)N[C@@H](CC(N)=O)C(=O)N[C@H](C(=O)NCC(=O)N[C@@H](CO)C(=O)N[C@@H](CC(N)=O)C(=O)N[C@H](C(=O)N[C@@H](Cc1ccc(O)cc1)C(N)=O)[C@@H](C)O)C(C)C)[C@@H](C)O` [Peptide 39, K(γE-C18diacid)K[CNTATC]ATQRLANFLEHSS(Aib)NFGPILPPTNVGSNTY-amide] (H-K([γGlu-C18 diacid])KCNTATCATQRLANFLEHSS[Aib]NFGPILPPTNVGSNTY-NH2; disulfide 3-8), in experiment [1], the EC50 was determined as 10400 pM. Besides, in experiment [2], the “Ratio (selectivity hAMYR vs hCTR, ratio of EC50 values at the two receptors)” value is recorded as 10 and the EC50 stood at 1050 pM.
In the case of `CC[C@H](C)[C@H](NC(=O)[C@@H]1CCCN1C(=O)CNC(=O)[C@H](Cc1ccccc1)NC(=O)[C@H](CC(N)=O)NC(=O)[C@H](CC(N)=O)NC(=O)[C@](C)(CO)NC(=O)[C@H](CO)NC(=O)[C@H](Cc1c[nH]cn1)NC(=O)[C@@H](NC(=O)[C@H](CC(C)C)NC(=O)[C@H](Cc1ccccc1)NC(=O)[C@H](CC(N)=O)NC(=O)[C@H](C)NC(=O)[C@H](CC(C)C)NC(=O)[C@H](CCCNC(=N)N)NC(=O)[C@H](CCC(N)=O)NC(=O)[C@@H](NC(=O)[C@H](C)NC(=O)[C@@H]1CSSC[C@H](NC(=O)[C@@H](N)CCCCNC(=O)CC[C@H](NC(=O)CC[C@H](NC(=O)CCCCCCCCCCCCCCCCC(=O)O)C(=O)O)C(=O)O)C(=O)N[C@@H](CC(N)=O)C(=O)N[C@@H]([C@@H](C)O)C(=O)N[C@@H](C)C(=O)N[C@@H]([C@@H](C)O)C(=O)N1)[C@@H](C)O)C(C)C)C(=O)N[C@@H](CC(C)C)C(=O)N1CCC[C@H]1C(=O)N1CCC[C@H]1C(=O)N[C@H](C(=O)N[C@@H](CC(N)=O)C(=O)N[C@H](C(=O)NCC(=O)N[C@@H](CO)C(=O)N[C@@H](CC(N)=O)C(=O)N[C@H](C(=O)N[C@@H](Cc1ccc(O)cc1)C(N)=O)[C@@H](C)O)C(C)C)[C@@H](C)O` [Peptide 22, K(γE-γE-C18diacid)[CNTATC]ATQRLANFLVHS(αMeSer)NNFGPILPPTNVGSNTY-amide] (H-K([γGlu-γGlu-C18 diacid])CNTATCATQRLANFLVHS[αMeS]NNFGPILPPTNVGSNTY-NH2; disulfide 2-7; N-terminus assumed), the EC50 in experiment [1] was 6540 pM. In addition, in experiment [2], the “Ratio (selectivity hAMYR vs hCTR, ratio of EC50 values at the two receptors)” value came out at 40 and the EC50 was 162 pM.
The corresponding values for `CC(C)C[C@H](NC(=O)[C@H](CCCNC(=N)N)NC(=O)[C@H](CCC(N)=O)NC(=O)[C@@H](NC(=O)[C@H](C)NC(=O)[C@@H]1CSSC[C@H](NC(=O)[C@H](CCCCN)NC(=O)[C@@H](N)CCCCNC(=O)CC[C@H](NC(=O)CCCCCCCCCCCCCCCCC(=O)O)C(=O)O)C(=O)N[C@@H](CC(N)=O)C(=O)N[C@@H]([C@@H](C)O)C(=O)N[C@@H](C)C(=O)N[C@@H]([C@@H](C)O)C(=O)N1)[C@@H](C)O)C(=O)N[C@@H](C)C(=O)N[C@@H](CC(N)=O)C(=O)N[C@@H](Cc1ccccc1)C(=O)N[C@@H](CC(C)C)C(=O)N[C@H](C(=O)N[C@@H](Cc1c[nH]cn1)C(=O)N[C@@H](CO)C(=O)N[C@@H](CO)C(=O)NC(C)(C)C(=O)N[C@@H](CC(N)=O)C(=O)N[C@@H](Cc1ccccc1)C(=O)NCC(=O)N1CCC[C@H]1C(=O)NC(C)(C)C(=O)N[C@@H](CC(C)C)C(=O)N1CCC[C@H]1C(=O)N1CCC[C@H]1C(=O)N[C@H](C(=O)N[C@@H](CC(N)=O)C(=O)N[C@H](C(=O)NCC(=O)N[C@@H](CO)C(=O)N[C@@H](CC(N)=O)C(=O)N[C@H](C(=O)N[C@@H](Cc1ccc(O)cc1)C(N)=O)[C@@H](C)O)C(C)C)[C@@H](C)O)C(C)C` [Peptide 78, K(γE-C18diacid)K[CNTATC]ATQRLANFLVHSS(Aib)NFGP(Aib)LPPTNVGSNTY-amide] (H-K([γGlu-C18 diacid])KCNTATCATQRLANFLVHSS[Aib]NFGP[Aib]LPPTNVGSNTY-NH2; disulfide 3-8; N-terminus assumed) are 3150 pM, 11 and 288 pM.
In the case of “H-K([AEEA-AEEA-γGlu-C18 diacid])GGGKCNTATCATQRLANFLVHSSNNFGPILPPTNVGSNTY-NH2 (disulfide 6-11) [Peptide 7]”, the EC50 in experiment [1] amounted to 2160 pM. In experiment [2], the “Ratio (selectivity hAMYR vs hCTR, ratio of EC50 values at the two receptors)” value is on record as 12 and the EC50 was 173 pM.
Consider `CC[C@H](C)[C@H](NC(=O)[C@@H]1CCCN1C(=O)CNC(=O)[C@H](Cc1ccccc1)NC(=O)[C@H](CC(N)=O)NC(=O)C(C)(C)NC(=O)[C@H](CO)NC(=O)[C@H](CO)NC(=O)[C@H](Cc1c[nH]cn1)NC(=O)[C@H](CO)NC(=O)[C@H](CC(C)C)NC(=O)[C@H](Cc1ccccc1)NC(=O)[C@H](CC(N)=O)NC(=O)[C@H](C)NC(=O)[C@H](CC(C)C)NC(=O)[C@H](CCCNC(=N)N)NC(=O)[C@H](CCC(N)=O)NC(=O)[C@@H](NC(=O)[C@H](C)NC(=O)[C@@H]1CSSC[C@H](NC(=O)[C@H](CCCCN)NC(=O)[C@@H](N)CCCCNC(=O)CC[C@H](NC(=O)CCCCCCCCCCCCCCCCC(=O)O)C(=O)O)C(=O)N[C@@H](CC(N)=O)C(=O)N[C@@H]([C@@H](C)O)C(=O)N[C@@H](C)C(=O)N[C@@H]([C@@H](C)O)C(=O)N1)[C@@H](C)O)C(=O)N[C@@H](CC(C)C)C(=O)N1CCC[C@H]1C(=O)N1CCC[C@H]1C(=O)N[C@H](C(=O)N[C@@H](CC(N)=O)C(=O)N[C@H](C(=O)N1CCC[C@H]1C(=O)N[C@@H](CO)C(=O)N[C@@H](CC(N)=O)C(=O)N[C@H](C(=O)N[C@@H](Cc1ccc(O)cc1)C(N)=O)[C@@H](C)O)C(C)C)[C@@H](C)O` [Peptide 54, K(γE-C18diacid)K[CNTATC]ATQRLANFLSHSS(Aib)NFGPILPPTNVPSNTY-amide] (H-K([γGlu-C18 diacid])KCNTATCATQRLANFLSHSS[Aib]NFGPILPPTNVPSNTY-NH2; disulfide 3-8; N-terminus assumed), for which the EC50 in experiment [1] was determined as 1510 pM; in experiment [2], 7590 pM. For the same compound, the “Ratio (selectivity hAMYR vs hCTR, ratio of EC50 values at the two receptors)” value in experiment [2] is 0.2.
The corresponding values for `CC[C@H](C)[C@H](NC(=O)[C@@H]1CCCN1C(=O)CNC(=O)[C@H](Cc1ccccc1)NC(=O)[C@H](CC(N)=O)NC(=O)C(C)(C)NC(=O)[C@H](CO)NC(=O)[C@H](CO)NC(=O)[C@H](Cc1c[nH]cn1)NC(=O)[C@H](CCCNC(=N)N)NC(=O)[C@H](CC(C)C)NC(=O)[C@H](Cc1ccccc1)NC(=O)[C@H](CC(N)=O)NC(=O)[C@H](C)NC(=O)[C@H](CC(C)C)NC(=O)[C@H](CCCNC(=N)N)NC(=O)[C@H](CCC(N)=O)NC(=O)[C@@H](NC(=O)[C@H](C)NC(=O)[C@@H]1CSSC[C@H](NC(=O)[C@@H](N)CCCCNC(=O)CC[C@H](NC(=O)CCCCCCCCCCCCCCCCC(=O)O)C(=O)O)C(=O)N[C@@H](CC(N)=O)C(=O)N[C@@H]([C@@H](C)O)C(=O)N[C@@H](C)C(=O)N[C@@H]([C@@H](C)O)C(=O)N1)[C@@H](C)O)C(=O)N[C@@H](CC(C)C)C(=O)N1CCC[C@H]1C(=O)N1CCC[C@H]1C(=O)N[C@H](C(=O)N[C@@H](CCCNC(=N)N)C(=O)N[C@H](C(=O)NCC(=O)N[C@@H](CO)C(=O)N[C@@H](CC(N)=O)C(=O)N[C@H](C(=O)N[C@@H](Cc1ccc(O)cc1)C(N)=O)[C@@H](C)O)C(C)C)[C@@H](C)O` [Peptide 76, K(γE-C18diacid)[CNTATC]ATQRLANFLRHSS(Aib)NFGPILPPTRVGSNTY-amide] (H-K([γGlu-C18 diacid])CNTATCATQRLANFLRHSS[Aib]NFGPILPPTRVGSNTY-NH2; disulfide 2-7; N-terminus assumed) are 22300 pM, 209 pM and 107.
